Read-outs that look alike come from different tables or passages of the source. Values belong to the compound of their own block, whether it stands above or below them.
Key:
[1] = system: IL-6/STAT3 signaling pathway; assay: STAT3-dependent luciferase reporter assay; format: cell-based, human; details: for IC50: HepG2/STAT3 luciferase cells, compound 1 h then IL-6 10 ng/mL 5.5 h
Excerpt: HepG2/STAT3 cells, a gift of Prof. Xinyuan Fu (National University of Singapore, Singapore), were the human hepatocellular carcinoma HepG2 cells stably transfected with a STAT3-responsive firefly luciferase reporter plasmid. Briefly, three tandem repeats of the oligonucleotide […], which contains the DNA binding sequence of STAT3, was artificially synthesized and introduced into the luciferase reporter vector pGL2-P plasmid (Promega). The pGL2-P/STAT3 construct was confirmed by sequencing. The luciferase reporter plasmid pGL2-P/STAT3 was used to transfect HepG2 cells using Lipofectamine 2000 (Invitrogen). The stably transfected HepG2 cell line with the pGL2-P/STAT3 plasmid was obtained by screening for G418-resistant cell clones.
The inhibitory activities on IL-6/STAT3 signaling were determined by STAT3-dependent luciferase reporter assay described in our previously report. HepG2/STAT3 cells were HepG2 cells stably transfected with a STAT3-responsive firefly luciferase reporter plasmid. The expression level of luciferase reached its peak value after 5–6 h stimulation by interleukin (IL)-6. HepG2/STAT3 cells (2 × 10^4 per well) were seeded into 96-well cell culture microplates (Corning) and allowed to grow for 48 h and then treated with compounds 1–8 (0, 0.00001, 0.0001, 0.001, 0.01, 0.1, 1, 4, 20 μM) for 1 h followed by stimulation with 10 ng/mL interleukin (IL)-6 (BD Biosciences) for 5.5 h (cells were treated with compounds 1–8 for 6.5h). Luciferase activities were measured with the Promega luciferase kit (# E4550) according to the manufacturer’s instruction. All luciferase assay experiments were carried out at least thrice in triplicate to minimize the difference caused by cell number. The JAK2/STAT3 inhibitor pyridone 6 (Merck Chemical) was used as a positive control.

[2] = system: HepG2/STAT3-luciferase cells; assay: MTT cell viability assay, HepG2/STAT3-luciferase cells 6.5 h; format: cell-based, human; details: 0.016-100 μM
Protocol: (§1) The cell growth inhibitory activities on human hepatocellular carcinoma cells were examined by the MTT (3-(4,5-dimethylthiazol–2-yl)-2,5-diphenyl tetrazolium bromide). About 3.5 × 10^4 cells per well were seeded into 96-well plates for 24 h. HepG2/STAT3 cells were then treated with vehicle control (DMSO) or 2-ethoxystypandrone (1) at indicated concentrations (0.016, 0.08, 0.4, 2, 10, 50, 100 μM) for 6.5 h. HCC Huh-7, Li-7, SK-HEP-1, HepG3B, and HepG2 cells were treated with 2-ethoxystypandrone (1) at indicated concentrations for 72 h. The assay was carried out by adding a MTT solution (20 μL, 5 mg/mL; Sigma Chemical Co.) to each well and incubating for 3 h at 37 °C to form MTT-formazan crystals by metabolically viable cells. The supernatant was aspirated, and the MTT-formazan crystals were dissolved in DMSO (150 μL). The absorbance was measured by a microplate reader (BioTek Instruments, USA) at a wavelength of 492/620 nm.

[3] = system: STAT3 tyrosine phosphorylation (Tyrosine 705) in HepG2/STAT3 cells; assay: Western blot, IL-6-induced STAT3 tyrosine phosphorylation; format: cell-based, human; details: 2 h pretreatment 2-100 μM, IL-6 15 min
Protocol: Expression of STAT3 and p-STAT3 proteins was analyzed by Western Blot analysis described in previous report. HepG2/STAT3 cells or HepG2 cells were grown to 70–80% confluency and then pre-treated with 2-ethoxystypandrone (1) at different concentrations (0, 2, 10, 50,100 μM) for 2 h. The cells were stimulated with IL-6 for 15 min (the phosphorylation of STAT3 appeared in the 15 min) and then lysed in Laemmli sample buffer and boiled for 5 min. Proteins were then separated by 8% SDS-PAGE and transferred to nitrocellulose membranes. Membranes were blocked in TBS containing 5% nonfat milk 0.1% and Tween 20 (TBST) for 1 h at room temperature and then incubated for 2 h in TBST containing primary antibodies and 5% bovine serum albumin. After being washed with TBST, membranes were then incubated with horseradish peroxidase-conjugated goat anti-mouse IgG (H + L) secondary antibody (#GAM007, MultiSciences) for 1 h, and finally immune complexes were detected by enhanced chemiluminescence. Primary antibodies used in Western blot were mouse anti-STAT3 (#9139,CST), mouse anti-pY-STAT3 (Tyrosine 705, #9138, CST), and mouse anti-α-tubulin (#sc5286, Santa Cruz).

SK-HEP-1 cells = assay: MTT cell viability assay, SK-HEP-1; format: cell-based; details: Homo sapiens, SK-HEP1, SK-HEP-1, 72 h, read-out: IC50, cell growth/viability
Protocol: (§2) Human hepatocellular carcinoma Hep3B and HepG2 were obtained from the American Type Culture Collection. Human hepatocellular carcinoma Huh-7, Li-7 and SK-HEP-1 cells were kindly provided by Stem Cell Bank, Chinese Academy of Sciences. HepG2/STAT3 cells were cultured in α-MEM (Life Technologies, USA) with 10% FCS (Life Technologies, USA) and the rest cell lines were cultured in DMEM (Life Technologies) with 10% FCS (Life Technologies, USA).
as §1

HepG3B cells = assay: MTT cell viability assay, HepG3B; format: cell-based; details: Homo sapiens, 72 h, read-out: IC50, cell growth/viability
Protocol: as §2, §1

HepG2 cells = assay: MTT cell viability assay, HepG2; format: cell-based; details: Homo sapiens, HepG2, 72 h, read-out: IC50, cell growth/viability
Protocol: as §2, §1

Li-7 cells = assay: MTT cell viability assay, Li-7; format: cell-based; details: Homo sapiens, Li-7, 72 h, read-out: IC50, cell growth/viability
Protocol: as §2, §1

Huh-7 cells [4] = assay: Annexin V/PI flow cytometry apoptosis, Huh-7; format: cell-based, human; details: Huh-7, 8 μM, 24 h
Protocol: Huh-7 cells were grown to 70–80% confluence and then treated with various concentrations (0, 2, 4, and 8 μM) of 2-ethoxystypandrone (1) for 24 h. The cells were harvested and […]. The cells were then treated with FITC Annexin V apoptosis detection kit I (BD Biosciences Pharmingen) according to the manufacturer’s protocol and the samples were immediately then analyzed by flow cytometry (BD Canto II, USA). The percentage of cells undergoing apoptosis was calculated with CELLQuest 3.0 software. The dots in the lower left quadrant, upper left quadrant, upper right quadrant, and lower right quadrant represent the viable cells, the damages cells, the cells in late apoptosis and the cells in early apoptosis, respectively.

[5] = system: human HCC cell lines (Huh-7, Li-7, SK-HEP-1, HepG3B, and HepG2); assay: MTT cell viability assay, panel of human HCC cell lines; format: cell-based; details: five HCC cell lines, 72 h, read-out: IC50 range over tested HCC cells
Protocol: as §2, §1

HCC CSCs [6] = assay: Annexin V flow cytometry apoptosis, HCC CSCs; format: cell-based, human
Protocol: (§3) HCC cancer stem cells were isolated from HCC Huh-7 cell line by serum-free cancer stem cell culture selection. The Huh-7 cells were collected and washed to remove serum, then suspended and plated in cancer stem cell conditioned culture medium (CSC medium) supplemented with 100 IU/ML pennicillin and 100 μg/ml streptomycin. CSC medium used for sustaining cancer stemness was serum-free DMEM/F12 containing 10 ng/ml basic fibroblast growth factor (bFGF), 20 ng/ml epidermal growth factor (EGF), 4 μg/ml heparin, 100 μg/ml apotransferrin, 25 μg/ml insulin, 9.6 μg/ml putrescin, 20 nM progesterone, 30 nM sodium selenite anhydrous, and 4 mg/ml bovine serum albumin. […]
For analysis the apoptosis of HCC CSCs, the suspended tumorspheres were harvested and dissociated mechanically into single cells with 0.005% trypsin-EDTA for 2 min and the dissociated cells were re-seeded with CSC medium and treated with indicated concentrations (0, 5, 8, and 10 μM) of 2-ethoxystypandrone (1) for 24 h. The cells were harvested and then treated with FITC Annexin V apoptosis detection kit I (BD Biosciences Pharmingen, USA) according to the manufacturer’s protocol respectively and the samples were immediately then analyzed by flow cytometry (BD Canto II, USA). […]

Huh-7 cells [7] = assay: MTT cell viability assay, Huh-7; format: cell-based; details: Homo sapiens, Huh-7, 72 h, read-out: IC50, cell growth/viability
Protocol: as §2, §1

HCC CSCs [8] = assay: PI flow cytometry cell cycle distribution, HCC CSCs; format: cell-based, human; details: 10 μM, 24 h
Protocol: HCC cancer stem cells were isolated from HCC Huh-7 cell line by serum-free cancer stem cell culture selection. The Huh-7 cells were collected and washed to remove serum, then suspended and plated in cancer stem cell conditioned culture medium (CSC medium) supplemented with 100 IU/ML pennicillin and 100 μg/ml streptomycin. CSC medium used for sustaining cancer stemness was serum-free DMEM/F12 containing 10 ng/ml basic fibroblast growth factor (bFGF), 20 ng/ml epidermal growth factor (EGF), 4 μg/ml heparin, 100 μg/ml apotransferrin, 25 μg/ml insulin, 9.6 μg/ml putrescin, 20 nM progesterone, 30 nM sodium selenite anhydrous, and 4 mg/ml bovine serum albumin. The Huh-7 cells were subsequently cultured in ultra-low attachment 6-well plates at a density of 5000 cells/well, half volume of the flesh medium was exchanged every second day. After 10–14 days of culture, the most Huh-7 cells died and the cells grew up as nonadherent, three-dimensional sphere clusters.
For analysis the apoptosis of HCC CSCs, the suspended tumorspheres were harvested and dissociated mechanically into single cells with 0.005% trypsin-EDTA for 2 min and the dissociated cells were re-seeded with CSC medium and treated with indicated concentrations (0, 5, 8, and 10 μM) of 2-ethoxystypandrone (1) for 24 h. The cells were harvested and then treated with FITC Annexin V apoptosis detection kit I (BD Biosciences Pharmingen, USA) according to the manufacturer’s protocol respectively and the samples were immediately then analyzed by flow cytometry (BD Canto II, USA). […] After washing the cells with pre-cooled PBS twice, the cells were then treated with Propidium iodide (PI)/RNase Staining Buffer (BD Biosciences Pharmingen, USA) according to the manufacturer’s protocol respectively and the samples were immediately then analyzed by flow cytometry (BD Canto II,USA).

[9] = system: HCC CSCs isolated from HCC Huh-7 cells; assay: Tumorsphere formation assay; format: cell-based, human; details: 72 h
Protocol: as §3
To propagate the tumorspheres in vitro, spheres were collected by gentle centrifugation, dissociated with 0.005% trypsin-EDTA for 2 min, then added CSC medium and mechanically dissociated with a pipette to single cells. […] The dissociated single sphere-forming cells were diluted to a density of 1000 cells/ml, Then, the 1ml/well diluted cell suspension was plated to ultra-low attachment 12 wells plate and treated with indicated concentrations (0, 0.5, 1, 2, 3, 5, 8 and 10 μM) of compound 2-ethoxystypandrone for 72 h, the tumorspheres were photographed under an inverted microscope (Leica DMi8, Germany) and the tumorspheres larger than 50 μm in diameter were counted using ImageJ 1.45.

[10] = system: IL-6/STAT3 signaling pathway; design: method as in PMID 22855270; details: previously reported value; read-out: IC50 against STAT3 signaling; cited from earlier work

Compound: O=C(OC1C(Oc2cc(O)cc(C=Cc3ccc(O)cc3)c2)OC(CO)C(O)C1O)c1cc(O)c(O)c(O)c1 (stereo not drawn) [compound 5, polydatin-2′-O-gallate]
IC50 ([1]; Homo sapiens): > 100 µM

Compound: CCOC1=CC(=O)c2c(cc(C)c(C(C)=O)c2O)C1=O [compound 1, 2-ethoxy-6-acetyl-7-methyl-juglone]
cell viability [2]: not completely dead
IL-6-induced STAT3 tyrosine phosphorylation [3]: inhibit the IL-6-induced STAT3 tyrosine phosphorylation in a dose-dependent manner
IC50 (SK-HEP-1 cells): 8.78 µM
IC50 (HepG3B cells): 16.7 ± 0.58 µM
IC50 ([1]; Homo sapiens): 7.75 ± 0.18 µM
increased potency against STAT3 signaling compared with 2-methoxystypandrone ([1]; ratio of IC50 values): 2 fold
IC50 (HepG2 cells): 20.4 ± 2.9 µM
IC50 (Li-7 cells): 5.58 ± 0.89 µM
total apoptosis (Huh-7 cells [4]): 88.6 ± 1.4%
IC50 [5]: 3.69 to 20.4 µM
percentage of apoptotic cells (HCC CSCs [6]; 10 μM, 24 h): 41.2 ± 4.3%
early apoptotic cells (HCC CSCs [6]; 24 h (text; 10 μM per Fig. 5a)): 38.2 ± 4.2%
IC50 (Huh-7 cells [7]): 3.69 ± 0.51 µM
cells in G0/G1 (HCC CSCs [8]): 37.53 ± 1.32%
cells in G2/M phase (HCC CSCs [8]): 18.5 ± 0.36%
cells in S phase (HCC CSCs [8]): 43.96 ± 1.07%
self-renewal and tumorsphere formation vs control ([9]; 2 μM): significantly blocked self-renewal and the tumorsphere formation
IC50 ([9]; Homo sapiens, Huh-7, HCC CSCs, spheres larger than 50 μm counted): 2.7 ± 0.28 µM

Compound: CC(C)(C)c1nc2c3cc[nH]c(=O)c3c3cc(F)ccc3c2[nH]1 [pyridone 6, reference compound]
IC50 [1]: 0.02 ± 0.001 µM

Compound: O=C(OC1Cc2c(O)cc(O)cc2OC1c1ccc(O)c(O)c1)c1cc(O)c(O)c(O)c1 (stereo not drawn) [compound 7, catechin-3-O-gallate]
IC50 ([1]; Homo sapiens): > 100 µM

Compound: COC1=CC(=O)c2c(cc(C)c(C(C)=O)c2O)C1=O [2-methoxystypandrone, 2-methoxy-6-acetyl-7-methyl-juglone]
IC50 [10]: 17.2 ± 0.21 µM

Other lines, results leading:

IC50 ([1]; Homo sapiens): > 100 µM
Compound: OC[C@H]1O[C@@H](Oc2cc(O)cc(/C=C/c3ccc(O)cc3)c2)[C@H](O)[C@@H](O)[C@@H]1O [compound 6, polydatin]

IC50 ([1]; Homo sapiens): > 100 µM
Compound: O=C1COc2cc(O)cc(O)c21 [compound 3, 4,6-dihydroxybenzofuran-3-one]
